Earlier results, collected in PMC6954965 (Neuropharmacology, 2019).

Legend:
PSD95 tandem PDZ domains = conditions: dimeric peptide inhibitor of PSD95 tandem PDZ domains; ref Bach et al., 2012
Male Sprague-Dawley rats = conditions: administered directly into the nucleus accumbens shell; ref Schmidt et al., 2013
PICK1 PDZ domain = conditions: binds the PDZ domain of PICK1; ref Thorsen et al., 2010

Question: Which Ki (PSD95 tandem PDZ domains) does the source give for Tat-NPEG4(IEDTV)(2) here?
Answer: 0.0046 µM

Question: For `CCOC(=O)NC(=O)/C(C#N)=C/c1ccc(Cl)c(Cl)c1` [FSC231], which “reinstatement of cocaine seeking” value (Male Sprague-Dawley rats) is on record?
Answer: sufficient to attenuate

Question: And the Ki (PICK1 PDZ domain)?
Answer: 10.1 µM
